{"source": "PubChem BioAssay AID1017", "about": "(Sanford-Burnham Center for Chemical Genomics, 2009)", "molecular_target": "Intestinal-type alkaline phosphatase (Homo sapiens) (UniProt P09923)", "sequence (P09923 whole entry, looked up)": "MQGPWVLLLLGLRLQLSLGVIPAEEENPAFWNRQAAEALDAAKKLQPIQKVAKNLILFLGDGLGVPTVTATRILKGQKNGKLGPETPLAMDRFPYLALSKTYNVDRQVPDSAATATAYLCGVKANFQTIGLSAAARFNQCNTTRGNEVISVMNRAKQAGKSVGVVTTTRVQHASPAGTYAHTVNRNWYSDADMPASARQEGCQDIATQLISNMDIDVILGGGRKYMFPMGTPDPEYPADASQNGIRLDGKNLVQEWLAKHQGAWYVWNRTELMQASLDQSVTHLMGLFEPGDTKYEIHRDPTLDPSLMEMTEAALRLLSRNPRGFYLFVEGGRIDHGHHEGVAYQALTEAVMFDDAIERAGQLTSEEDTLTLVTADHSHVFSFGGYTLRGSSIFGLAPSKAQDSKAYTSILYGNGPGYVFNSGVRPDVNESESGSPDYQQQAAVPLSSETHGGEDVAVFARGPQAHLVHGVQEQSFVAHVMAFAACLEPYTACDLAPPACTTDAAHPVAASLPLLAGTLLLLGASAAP", "test": "human IAP enzyme inhibitors, dose response, biochemical, luminescence (AID 1017)", "settings": "purified human IAP, luminescent substrate", "note": "Where “and” joins values, the source holds several entries; their conditions need not be identical. Identical values can stand only once."}
{"smiles": "Oc1ccc(CCN=Cc2c(O)[nH]c3ccccc23)cc1O", "values": [{"measurement": "IC50", "result": 9950, "unit": "nM"}]}
{"smiles": "O=C1C2CC=CCC2C(=O)N1c1n[nH]c(-c2ccccc2)n1", "note": "(stereo not drawn)", "values": [{"measurement": "IC50", "result": "110 nM and 157 nM"}]}
{"smiles": "O=C1C2CC=CCC2C(=O)N1c1n[nH]c(Cc2ccccc2)n1", "note": "(stereo not drawn)", "values": [{"measurement": "IC50", "result": "539 nM and 922 nM"}]}
